Results reported in patent US20250127914A1, “ANTIBODY-CONJUGATED 8-SULFONYL-BENZAZEPINE COMPOUNDS AND THEIR USES” (BOLT BIOTHERAPEUTICS, INC., priority 2022, published 2025).

Legend:
human TLR8 = target: T1, human TLR8 (Homo sapiens, UniProt Q9NR97); assay: HEK Reporter Assay, human TLR8; assay type: cell-based; details: HEK293 NFKB reporter cells expressing human TLR8; read-out: HEK293 hTLR8 EC50
T1 construct: host or cells: HEK293 NF-kB reporter cells
T1 sequence (Q9NR97 27-1041): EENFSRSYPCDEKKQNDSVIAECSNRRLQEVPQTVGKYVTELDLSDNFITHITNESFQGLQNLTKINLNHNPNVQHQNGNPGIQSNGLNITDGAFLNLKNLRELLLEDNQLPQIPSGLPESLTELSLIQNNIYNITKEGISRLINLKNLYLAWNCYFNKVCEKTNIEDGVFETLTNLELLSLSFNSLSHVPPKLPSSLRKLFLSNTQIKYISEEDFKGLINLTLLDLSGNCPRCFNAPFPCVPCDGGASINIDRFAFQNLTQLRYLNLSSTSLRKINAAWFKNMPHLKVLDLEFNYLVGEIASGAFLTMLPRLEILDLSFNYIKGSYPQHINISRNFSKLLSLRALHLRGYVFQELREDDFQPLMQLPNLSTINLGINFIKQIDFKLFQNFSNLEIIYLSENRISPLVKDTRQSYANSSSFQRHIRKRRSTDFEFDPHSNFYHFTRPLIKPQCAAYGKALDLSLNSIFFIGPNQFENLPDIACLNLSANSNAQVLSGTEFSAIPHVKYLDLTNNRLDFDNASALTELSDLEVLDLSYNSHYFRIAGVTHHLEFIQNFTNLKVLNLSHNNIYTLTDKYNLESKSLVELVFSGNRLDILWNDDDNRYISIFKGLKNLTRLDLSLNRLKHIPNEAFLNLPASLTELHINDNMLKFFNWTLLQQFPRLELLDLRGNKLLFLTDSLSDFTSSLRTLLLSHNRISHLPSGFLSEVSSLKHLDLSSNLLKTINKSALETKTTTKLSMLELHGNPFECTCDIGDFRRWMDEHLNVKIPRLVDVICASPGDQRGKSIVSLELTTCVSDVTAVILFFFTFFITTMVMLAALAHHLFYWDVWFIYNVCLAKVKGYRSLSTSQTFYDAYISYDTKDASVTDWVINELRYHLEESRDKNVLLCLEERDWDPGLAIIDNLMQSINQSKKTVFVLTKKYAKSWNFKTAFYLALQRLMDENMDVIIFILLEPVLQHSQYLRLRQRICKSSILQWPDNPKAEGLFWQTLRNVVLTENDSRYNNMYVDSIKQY
Protocol: (§1) Exemplary 8-sulfonyl-2-aminobenzazepine compounds (8SO2Bz) of the invention were synthesized, purified, and characterized by mass spectrometry and shown to have the expected mass. Additional experimental procedures are found in the Examples. Activity against HEK293 NFKB reporter cells expressing human TLR7 or human TLR8 was measured according to Example 202.
(§2) HEK293 reporter cells expressing human TLR7 or human TLR8 were purchased from Invivogen and vendor protocols were followed for cellular propagation and experimentation. Briefly, cells were grown to 80-85% confluence at 5% CO2 in DMEM supplemented with 10% FBS, Zeocin, and Blasticidin. Cells were then seeded in 96-well flat plates at 4×10^4 cells/well with substrate containing HEK detection medium and immunostimulatory molecules. Activity was measured using a plate reader at 620-655 nm wavelength.

human TLR7 = target: T2, human TLR7 (Homo sapiens, UniProt Q9NYK1); assay: HEK Reporter Assay, human TLR7; assay type: cell-based; details: HEK293 NFKB reporter cells expressing human TLR7; read-out: HEK293 hTLR7 EC50
T2 construct: host or cells: HEK293 NF-kB reporter cells
T2 sequence (Q9NYK1 27-1049): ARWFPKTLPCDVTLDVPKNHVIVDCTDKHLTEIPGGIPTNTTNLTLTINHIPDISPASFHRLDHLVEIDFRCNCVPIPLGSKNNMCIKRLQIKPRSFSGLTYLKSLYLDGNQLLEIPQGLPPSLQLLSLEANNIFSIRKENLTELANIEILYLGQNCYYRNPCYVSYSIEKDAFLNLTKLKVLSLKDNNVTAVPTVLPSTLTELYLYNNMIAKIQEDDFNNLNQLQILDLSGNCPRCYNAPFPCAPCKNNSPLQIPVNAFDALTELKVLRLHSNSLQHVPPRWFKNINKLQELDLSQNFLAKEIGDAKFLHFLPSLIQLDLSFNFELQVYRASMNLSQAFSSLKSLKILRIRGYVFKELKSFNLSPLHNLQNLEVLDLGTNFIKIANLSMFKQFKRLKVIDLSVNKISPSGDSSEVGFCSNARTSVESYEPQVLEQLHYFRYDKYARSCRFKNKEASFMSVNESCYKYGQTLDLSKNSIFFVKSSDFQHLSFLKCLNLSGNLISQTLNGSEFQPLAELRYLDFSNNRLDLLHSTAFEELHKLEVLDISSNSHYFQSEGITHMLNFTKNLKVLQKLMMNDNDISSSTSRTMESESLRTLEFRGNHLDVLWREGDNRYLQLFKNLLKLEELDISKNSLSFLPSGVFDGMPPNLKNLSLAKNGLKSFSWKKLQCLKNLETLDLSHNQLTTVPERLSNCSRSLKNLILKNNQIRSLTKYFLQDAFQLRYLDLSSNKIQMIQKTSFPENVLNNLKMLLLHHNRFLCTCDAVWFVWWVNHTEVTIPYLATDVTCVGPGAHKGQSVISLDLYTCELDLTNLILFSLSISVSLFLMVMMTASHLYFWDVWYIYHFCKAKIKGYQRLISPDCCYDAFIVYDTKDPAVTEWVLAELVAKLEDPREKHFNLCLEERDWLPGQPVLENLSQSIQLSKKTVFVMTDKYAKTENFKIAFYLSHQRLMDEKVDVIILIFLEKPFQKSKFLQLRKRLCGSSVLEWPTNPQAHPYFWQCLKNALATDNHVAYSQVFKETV
Protocol: as §1, §2

| EC50 (human TLR8) [nM] | EC50 (human TLR7) [nM] | SMILES |
| --- | --- | --- |
| < 2.3 | 395 | CCCN(OCCNC(=O)OC(C)(C)C)C(=O)C1=Cc2ccc(S(=O)(=O)N(C)C)cc2N=C(N)C1 [Immunoconjugate 8SO2Bz-2] |
| 1060 |  | CCCN(OCC)C(=O)C1=Cc2ccc(S(=O)(=O)c3ccc(C(=O)OC)cc3)cc2N=C(N)C1 |
| 202 |  | CCCN(OCC)C(=O)C1=Cc2ccc(S(=O)(=O)NC)cc2N=C(N)C1 [Immunoconjugate 8SO2Bz-3] |
